GI50 and TGI data for 15 compounds are collected here from PubChem BioAssay (NCI).

Among the test systems are ACHN renal; DU-145 prostate; HCT-116 colon; HS 578T breast; MCF7 breast; NCI-H226 lung; RXF 393 renal; SW-620 colon; A498 renal; SF-295 CNS.
Assay in all cases: growth of human tumour cells (NCI), 48 h

The structures appear in SMILES notation. “And” between values parts separate entries of the source, which are not always exact repeats. Equal values may be shown once.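 Exposure lasted 48 hours, with cells grown in 96-well plates and compounds tested at five concentrations. Here, GI50 denotes the concentration required for 50% inhibition of growth. TGI marks complete inhibition of growth.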

As for `CCN(CC)CCOC(COc1cc(C)cc(C)c1)COc1cc(C)cc(C)c1`, the GI50 is 3.6 µM in the assay on ACHN renal; 3.4 µM with DU-145 prostate; 3.31 µM in the assay on HCT-116 colon; 4.22 µM in the assay with HS 578T breast; 2.17 µM in the assay with MCF7 breast; 7.16 µM in the assay on NCI-H226 lung. Besides, the GI50 in the assay on RXF 393 renal was 2.06 µM; in the assay with SW-620 colon, 1.59 µM. Besides, the TGI in the assay with ACHN renal turned out to be 13.8 µM; in the assay with DU-145 prostate it was 13.4 µM; with HCT-116 colon, 14.9 µM; in the assay on HS 578T breast, 16.7 µM; in the assay on MCF7 breast, 5.33 µM; in the assay with NCI-H226 lung, 23.9 µM. In addition, the TGI in the assay with RXF 393 renal came to 5.07 µM; in the assay with SW-620 colon, 4.63 µM.
With `COc1cc(C(=O)c2cnc(-c3c[nH]c4cccc(C)c34)[nH]2)cc(OC)c1OC`, the GI50 in the assay on A498 renal is 0.00176 µM; with ACHN renal, 0.00846 µM; with DU-145 prostate, 0.00756 µM; with HCT-116 colon it was 0.00346 µM; in the assay with HS 578T breast it was 0.00655 µM; in the assay on MCF7 breast, 0.00344 µM. Moreover, the results for the GI50 in the assay on NCI-H226 lung and in the assay on SW-620 colon were 0.00485 µM and 0.00416 µM, respectively. Further, the TGI in the assay with A498 renal is 0.00774 µM; with ACHN renal it was 26.7 µM; with DU-145 prostate, greater than 100 µM; in the assay with HCT-116 colon, 11.1 µM; in the assay on HS 578T breast, greater than 100 µM; in the assay with MCF7 breast, greater than 100 µM. The TGI is 52.9 µM with SF-295 CNS and greater than 100 µM with SW-620 colon.
As for `Nc1ccc(CC[C@H]2CCC/C=C/[C@@H]3C[C@H](O)C[C@H]3[C@H](O)/C=C/C(=O)O2)cc1`, the GI50 is 0.0169 µM in the assay with A498 renal; 0.0413 µM in the assay with ACHN renal; 0.107 µM in the assay on DU-145 prostate; 0.0314 µM in the assay with HCT-116 colon; less than 0.0163 µM in the assay on HS 578T breast; 0.0226 µM in the assay with NCI-H226 lung. Further, the GI50 was 0.0215 µM in the assay with RXF 393 renal, 0.0476 µM in the assay with SF-295 CNS and 0.0329 µM in the assay on SW-620 colon. Further, the TGI in the assay with A498 renal is 0.0491 µM; in the assay with ACHN renal, greater than 100 µM; with DU-145 prostate it was greater than 100 µM; in the assay on HCT-116 colon, 0.114 µM; with HS 578T breast, greater than 58.9 µM; with NCI-H226 lung it was 0.0704 µM. Moreover, the TGI in the assay with RXF 393 renal was 0.0621 µM; in the assay with SF-295 CNS, greater than 100 µM; with SW-620 colon, 0.203 µM.
As to `N[C@@H]1CCCN(c2c(Br)cnc3[nH]cc(NC(=O)C4CC4)c23)C1`, the GI50 was 0.0412 µM in the assay with A498 renal; 0.459 µM with DU-145 prostate; 10.6 µM with HCT-116 colon; 0.417 µM with HS 578T breast; 0.123 µM in the assay with MCF7 breast; 11 µM with NCI-H226 lung. Further, the GI50 is 0.0618 µM in the assay on RXF 393 renal, 0.328 µM with SF-295 CNS and 2.06 µM with SW-620 colon. The TGI in the assay on A498 renal is 0.182 µM; in the assay on DU-145 prostate, greater than 100 µM; with HCT-116 colon, greater than 100 µM; in the assay on HS 578T breast it was 26.1 µM; with MCF7 breast, greater than 100 µM; with NCI-H226 lung, greater than 94.6 µM. Moreover, the results for the TGI in the assay with RXF 393 renal, in the assay on SF-295 CNS and with SW-620 colon were 0.27 µM, greater than 100 µM and greater than 100 µM, respectively.
`C/C=C/C=C/c1cc2cc3c(c(O)c2c(=O)[nH]1)C1(CC3)C(O)=c2c(=O)c3c(=O)cc(OC)c(=O)c=3c(=O)c2=C1O` (stereo not given): the TGI in the assay with ACHN renal is 1.7 µM and 16.5 µM; in the assay with DU-145 prostate it was 15.8 µM; in the assay with HS 578T breast it was 26.7 µM; in the assay with MCF7 breast it was 0.215 µM; in the assay on NCI-H226 lung, 3.71 µM and 8.42 µM; in the assay on RXF 393 renal it was 3.13 µM and 10.4 µM. Further, the TGI is 2.91 µM and 8.02 µM in the assay with SF-295 CNS; 1.47 µM and 13 µM in the assay on SW-620 colon. Moreover, the GI50 is 0.23 µM and 0.895 µM in the assay on NCI-H226 lung; 0.622 µM and 3.36 µM in the assay with RXF 393 renal.
On to `O=c1ccc(N=Nc2ccccc2)ccc1O`, for which the TGI was 26 µM with ACHN renal; 39.3 µM in the assay on DU-145 prostate; 26 µM with HCT-116 colon; 35.3 µM in the assay with HS 578T breast; greater than 100 µM in the assay on MCF7 breast; 24.3 µM in the assay on NCI-H226 lung. The TGI was greater than 100 µM with RXF 393 renal, 20.9 µM in the assay on SF-295 CNS and 22.5 µM in the assay on SW-620 colon.
As to `O=C(/C=C/c1ccc(O)c(O)c1)N1CCN(c2ccc(Cl)cc2)CC1`, the GI50 was 2.5 µM with A498 renal; 4.01 µM in the assay on ACHN renal; 10.5 µM with DU-145 prostate; 5.18 µM with HCT-116 colon; 8.04 µM in the assay with HS 578T breast; 6.08 µM with MCF7 breast. For the same compound, the GI50 was 4.63 µM with NCI-H226 lung, 19.1 µM in the assay on SF-295 CNS and 7.28 µM with SW-620 colon. In addition, the TGI with A498 renal came out at 16.4 µM; in the assay with ACHN renal, 38.2 µM; in the assay with DU-145 prostate it was 47.5 µM; in the assay on HCT-116 colon, 19.8 µM; in the assay on HS 578T breast, 49.4 µM; with MCF7 breast it was 25 µM. In addition, the values for the TGI in the assay with NCI-H226 lung, in the assay with SF-295 CNS and with SW-620 colon were 26.4 µM, greater than 100 µM and 81.4 µM, respectively.
Take `CC(C)(O)C1COC2=C1C(=O)c1ccccc1C2=O` (stereo not given): the TGI is greater than 100 µM with A498 renal; greater than 100 µM in the assay on ACHN renal; 43.5 µM with DU-145 prostate; 66.9 µM in the assay on HCT-116 colon; greater than 100 µM in the assay on HS 578T breast; 40.1 µM with MCF7 breast. Also, the TGI in the assay on NCI-H226 lung is greater than 100 µM; with SF-295 CNS, greater than 100 µM; in the assay on SW-620 colon, 50.4 µM.
Take `Fc1ccccc1CN1COc2c(cc(Cl)c3cccnc23)C1`: the TGI in the assay on ACHN renal is 10.3 µM; in the assay with DU-145 prostate, 16.4 µM; with HCT-116 colon, 13.2 µM; in the assay with HS 578T breast it was 20.8 µM; in the assay on MCF7 breast, 13.7 µM; with NCI-H226 lung, 2.97 µM. In addition, the results for the TGI in the assay on RXF 393 renal, in the assay on SF-295 CNS and in the assay with SW-620 colon were 63.6 µM, 12.1 µM and 18.4 µM, respectively.
Regarding `C=CCC(N[C@@H](CO)c1ccccc1)c1ccc2ccccc2n1` (stereo not given in full), the GI50 with A498 renal is 93.2 µM; with ACHN renal, greater than 100 µM; in the assay on DU-145 prostate, greater than 100 µM; in the assay with HCT-116 colon, greater than 100 µM; with HS 578T breast, greater than 100 µM; in the assay on NCI-H226 lung it was greater than 100 µM. The GI50 in the assay with RXF 393 renal, in the assay with SF-295 CNS and in the assay with SW-620 colon was greater than 100 µM each time. The TGI with A498 renal, in the assay with ACHN renal, in the assay on DU-145 prostate, in the assay on HCT-116 colon, in the assay with HS 578T breast and in the assay with NCI-H226 lung was greater than 100 µM each time. Besides, the TGI in the assay on RXF 393 renal, with SF-295 CNS and in the assay on SW-620 colon was greater than 100 µM in each case.
For `CCn1cc(C(=O)O)c(=O)c2cc(F)c(N3CCN(S(=O)(=O)c4ccc(Cl)cc4Cl)CC3)cc21`, the GI50 in the assay with A498 renal is 3 µM; with ACHN renal, 2.62 µM; in the assay on DU-145 prostate, 2.81 µM; in the assay with HCT-116 colon, 3.56 µM; in the assay on HS 578T breast, 2.53 µM; with MCF7 breast, 2.95 µM. For the same compound, the results for the GI50 in the assay with NCI-H226 lung, with RXF 393 renal and in the assay with SW-620 colon were 2.6 µM, 2.08 µM and 3.91 µM, respectively. For the same compound, the TGI in the assay with A498 renal is 30 µM; in the assay on ACHN renal, 7.68 µM; in the assay with DU-145 prostate it was 6.75 µM; in the assay with HCT-116 colon, greater than 100 µM; in the assay with HS 578T breast it was 7.66 µM; with MCF7 breast, 15.2 µM. In addition, the TGI in the assay with NCI-H226 lung is 7.88 µM; in the assay on RXF 393 renal, 5.68 µM; in the assay with SW-620 colon it was greater than 100 µM.
For the compound `O=[N+]([O-])c1cccc(/C=N/Nc2ccc3ccccc3n2)c1O`, the TGI is greater than 66.9 µM in the assay with A498 renal; 17.7 µM in the assay on DU-145 prostate; 4.77 µM in the assay with HCT-116 colon; greater than 88.6 µM in the assay with HS 578T breast; 11.4 µM in the assay with MCF7 breast; 9.98 µM in the assay with NCI-H226 lung. Moreover, the TGI is 17.4 µM in the assay with RXF 393 renal, 14.2 µM with SF-295 CNS and greater than 48.4 µM with SW-620 colon.
Take `COC1C(OC(=O)c2ccc(C)[nH]2)C(O)C(Oc2ccc3c(O)c(NC(=O)c4ccc(O)c(CC=C(C)C)c4)c(=O)oc3c2Cl)OC1(C)C` (stereo not given): the TGI turned out to be 33 µM with A498 renal; 77.5 µM with ACHN renal; 75.4 µM with DU-145 prostate; 33.1 µM in the assay with HCT-116 colon; 61.9 µM in the assay with HS 578T breast; 54.2 µM in the assay on MCF7 breast. Further, the results for the TGI in the assay on NCI-H226 lung, in the assay with SF-295 CNS and in the assay on SW-620 colon were 36.7 µM, 43.4 µM and 38 µM, respectively.
For the compound `CCc1ccc2c(c1)C(=O)c1c-2n(CCCN)c(=O)c2cc(OC)c(OC)cc12`, the GI50 is 1.68 µM with ACHN renal; 1.62 µM in the assay on DU-145 prostate; 2.07 µM with HS 578T breast; 1.58 µM in the assay on MCF7 breast; 21 µM with NCI-H226 lung; 1.59 µM in the assay with SF-295 CNS. The GI50 in the assay on SW-620 colon was 1.72 µM. Moreover, the TGI is 3.07 µM in the assay with ACHN renal; 3.07 µM with DU-145 prostate; 3.78 µM with HS 578T breast; 3.43 µM in the assay with MCF7 breast; 42.5 µM in the assay with NCI-H226 lung; 3.08 µM in the assay with SF-295 CNS. Also, the TGI with SW-620 colon was determined as 3.33 µM.
For `COc1cccc(/C=C2\N=C(c3ccccc3)OC2=O)c1`, the TGI with ACHN renal, with DU-145 prostate, in the assay with HCT-116 colon, in the assay with HS 578T breast, with MCF7 breast and with NCI-H226 lung was greater than 100 µM in each case. The TGI with RXF 393 renal, in the assay on SF-295 CNS and in the assay with SW-620 colon was greater than 100 µM each time.
